Source: patent US8063071B2 (GlaxoSmithKline, LLC, priority 2007, dated 2011)
Structures can show the parent of a compound that is named as a salt.

Legend:
[1] = biological target: T1, Recombinant human IKKβ (residues 1-737) (Homo sapiens, UniProt O14920); experiment: IKK2 assay (TR-FRET); assay type: biochemical; details: ATP 1 μM final, read-out: pIC50 against IKK2 (converted)
T1 construct: Recombinant human IKKβ (residues 1-737); GST (C); made in house
T1 sequence (O14920 1-737): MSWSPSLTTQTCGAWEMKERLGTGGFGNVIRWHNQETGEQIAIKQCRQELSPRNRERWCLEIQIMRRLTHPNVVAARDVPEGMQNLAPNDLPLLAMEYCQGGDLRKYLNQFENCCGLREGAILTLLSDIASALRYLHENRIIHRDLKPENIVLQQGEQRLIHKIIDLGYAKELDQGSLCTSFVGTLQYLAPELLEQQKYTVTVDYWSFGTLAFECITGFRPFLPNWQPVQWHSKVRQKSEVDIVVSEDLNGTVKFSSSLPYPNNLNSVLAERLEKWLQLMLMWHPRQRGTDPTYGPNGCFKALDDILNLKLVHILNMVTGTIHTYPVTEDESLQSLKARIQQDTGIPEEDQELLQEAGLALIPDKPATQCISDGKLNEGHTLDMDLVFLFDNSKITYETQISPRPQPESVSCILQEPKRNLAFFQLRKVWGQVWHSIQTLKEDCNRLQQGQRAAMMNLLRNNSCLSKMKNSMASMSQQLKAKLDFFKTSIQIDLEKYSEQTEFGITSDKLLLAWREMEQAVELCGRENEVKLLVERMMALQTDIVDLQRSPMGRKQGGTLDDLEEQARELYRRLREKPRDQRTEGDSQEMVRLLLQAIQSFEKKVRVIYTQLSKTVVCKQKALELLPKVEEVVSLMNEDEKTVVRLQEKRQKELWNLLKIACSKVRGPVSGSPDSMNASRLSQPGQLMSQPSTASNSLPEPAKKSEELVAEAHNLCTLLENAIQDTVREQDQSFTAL
Procedure, shortened: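 Baculovirus-expressed C-terminal GST-tagged IKKβ (0.5-5 nM final) in HEPES pH 7.4, MgCl2, CHAPS, DTT, BSA with 1.7% DMSO; 25 nM GST-IB substrate and 1 μM ATP, 15 min at room temperature. EDTA stop; phospho-Ser32/36 detected by Eu-antibody/APC-anti-GST TR-FRET, 665/620 nm ratio.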

[2] = system: human monocyte stimulated cytokine production (TNF-α); experiment: Monocyte assay (LPS-stimulated TNF-α production); assay type: cell-based; details: for IC50: 24 h, 200 ng/mL LPS, TNF-α by ELISA; for inhibition at 0.3 µM: read-out: inhibition at 300 nM in the monocyte assay
Procedure, shortened: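 Human CD14+ monocytes were purified from blood and plated at 1×10^6 cells/mL in RPMI 1640 with 10% FBS. Compound was added 30 min before stimulation with 200 ng/mL LPS (0.1% DMSO final), followed by 24 hrs at 37 C. Supernatant TNF-α was measured by ELISA, and viability by trypan blue exclusion.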

Work on `CCS(=O)(=O)N1CCC(c2c[nH]c3c(C(N)=O)cc(-c4coc(CNCC(C)(C)C)c4)cc23)CC1` [Example 244, 5-(5-{[(2,2-dimethylpropyl)amino]methyl}-3-furanyl)-3-[1-(ethylsulfonyl)-4-piperidinyl]-1H-indole-7-carboxamide trifluoroacetate] yielded an IC50 [1] of no more than 10 µM and an IC50 [2] of no more than 1.5 µM.
With `CC[C@H](C)CNCc1cccc(-c2cc(C(N)=O)c3[nH]cc(C4CCN(S(=O)(=O)CC)CC4)c3c2)c1` [Example 310, 3-[1-(ethylsulfonyl)-4-piperidinyl]-5-[3-({[(2S)-2-methylbutyl]amino}methyl)phenyl]-1H-indole-7-carboxamide] the IC50 [1] was no more than 10 µM and the IC50 [2] was no more than 1.5 µM.
In the case of `CCS(=O)(=O)N1CCC(c2c[nH]c3c(C(N)=O)cc(-c4csc(CN(C)C5CCS(=O)(=O)C5)c4)cc23)CC1` (stereo not shown) [Example 436, 5-(5-{[(1,1-dioxidotetrahydro-3-thienyl)(methyl)amino]methyl}-3-thienyl)-3-[1-(ethylsulfonyl)-4-piperidinyl]-1H-indole-7-carboxamide trifluoroacetate], the IC50 [1] is reported as no more than 10 µM and the inhibition at 0.3 µM [2] is reported as 0 to 60%.
Molecule `CCS(=O)(=O)N1CCC(c2c[nH]c3c(C(N)=O)cc(-c4ccc(F)c(CNC5CC5)c4)cc23)CC1` [Example 274, 5-{3-[(cyclopropylamino)methyl]-4-fluorophenyl}-3-[1-(ethylsulfonyl)-4-piperidinyl]-1H-indole-7-carboxamide trifluoroacetate] has an IC50 [1] of no more than 10 µM and an IC50 [2] of no more than 1.5 µM.
Work on `CCCN(CCC)CCc1cccc(-c2cc(C(N)=O)c3[nH]cc(C4CCN(S(=O)(=O)CC)CC4)c3c2)c1` [Example 349, 5-{3-[2-(dipropylamino)ethyl]phenyl}-3-[1-(ethylsulfonyl)-4-piperidinyl]-1H-indole-7-carboxamide trifluoroacetate] yielded an IC50 [1] of no more than 10 µM and an inhibition at 0.3 µM [2] of 0 to 60%.
`CCS(=O)(=O)N1CCC(c2c[nH]c3c(C(N)=O)cc(-c4cccc(CNS(=O)(=O)c5cc(Cl)ccc5Cl)c4)cc23)CC1` [Example 370, 5-[3-({[(2,5-dichlorophenyl)sulfonyl]amino}methyl)phenyl]-3-[1-(ethylsulfonyl)-4-piperidinyl]-1H-indole-7-carboxamide] showed an IC50 [1] of no more than 10 µM and an IC50 [2] of no more than 1.5 µM.
Work on `CCS(=O)(=O)N1CCC(c2c[nH]c3c(C(N)=O)cc(-c4csc(CN(C)Cc5cccs5)c4)cc23)CC1` [Example 80, 3-[1-(ethylsulfonyl)-4-piperidinyl]-5-(5-{[methyl(2-thienylmethyl)amino]methyl}-3-thienyl)-1H-indole-7-carboxamide trifluoroacetate] yielded an IC50 [1] of no more than 10 µM and an inhibition at 0.3 µM [2] of 0 to 60%.
With `CCS(=O)(=O)N1CCC(c2c[nH]c3c(C(N)=O)cc(-c4cccc(CNCc5ccsc5)c4)cc23)CC1` [Example 17, 3-[1-(ethylsulfonyl)-4-piperidinyl]-5-(3-{[(3-thienylmethyl)amino]methyl}phenyl)-1H-indole-7-carboxamide] the IC50 [1] was no more than 10 µM and the IC50 [2] was no more than 1.5 µM.
`CCS(=O)(=O)N1CCC(c2c[nH]c3c(C(N)=O)cc(-c4ccccc4CNC)cc23)CC1` [Example 303, 3-[1-(ethylsulfonyl)-4-piperidinyl]-5-{2-[(methylamino)methyl]phenyl}-1H-indole-7-carboxamide trifluoroacetate] gave an IC50 [1] of no more than 10 µM and an IC50 [2] greater than 1 µM.
`CCS(=O)(=O)N1CCC(c2c[nH]c3c(C(N)=O)cc(-c4csc(CN5CCOCC5)n4)cc23)CC1` [Example 351, 3-[1-(ethylsulfonyl)-4-piperidinyl]-5-[2-(4-morpholinylmethyl)-1,3-thiazol-4-yl]-1H-indole-7-carboxamide trifluoroacetate] was tested, and the IC50 [1] was no more than 10 µM and the inhibition at 0.3 µM [2] was 0 to 60%.
`CCS(=O)(=O)N1CCC(c2c[nH]c3c(C(N)=O)cc(-c4cccc(CNCC(C)(C)C)c4)cc23)CC1` [Example 308, 5-(3-{[(2,2-dimethylpropyl)amino]methyl}phenyl)-3-[1-(ethylsulfonyl)-4-piperidinyl]-1H-indole-7-carboxamide trifluoroacetate] showed an IC50 [1] of no more than 10 µM and an IC50 [2] of no more than 1.5 µM.
In the case of `CC(C)S(=O)(=O)N1CCC(c2c[nH]c3c(C(N)=O)cc(-c4csc(CN5CCC[C@@H]5CO)c4)cc23)CC1` [Example 394, 5-(5-{[(2R)-2-(hydroxymethyl)-1-pyrrolidinyl]methyl}-3-thienyl)-3-{1-[(1-methylethyl)sulfonyl]-4-piperidinyl}-1H-indole-7-carboxamide], the IC50 [1] is reported as no more than 10 µM and the IC50 [2] is reported as no more than 1.5 µM.
With `CCS(=O)(=O)N1CCC(c2c[nH]c3c(C(N)=O)cc(-c4csc(CN(C)Cc5ccsc5)c4)cc23)CC1` [Example 82, 3-[1-(ethylsulfonyl)-4-piperidinyl]-5-(5-{[methyl(3-thienylmethyl)amino]methyl}-1′-3-thienyl)-1H-indole-7-carboxamide trifluoroacetate] the IC50 [1] was no more than 10 µM and the IC50 [2] was no more than 1.5 µM.
`CCS(=O)(=O)N1CCC(c2c[nH]c3c(C(N)=O)cc(-c4csc(CCNCC(C)C)c4)cc23)CC1` [Example 222, 3-[1-(ethylsulfonyl)-4-piperidinyl]-5-(5-{2-[(2-methylpropyl)amino]ethyl}-3-thienyl)-1H-indole-7-carboxamide trifluoroacetate] gave an IC50 [1] of no more than 10 µM and an IC50 [2] of no more than 1.5 µM.
For `CCS(=O)(=O)N1CCC(c2c[nH]c3c(C(N)=O)cc(-c4ccc(F)c(CN[C@@H](C)CO)c4)cc23)CC1` [Example 273, 3-[1-(ethylsulfonyl)-4-piperidinyl]-5-[4-fluoro-3-({[(1S)-2-hydroxy-1-methylethyl]amino}methyl)phenyl]-1H-indole-7-carboxamide trifluoroacetate (salt)], the IC50 [1] was no more than 10 µM and the IC50 [2] was no more than 1.5 µM.
`CCS(=O)(=O)N1CCC(c2c[nH]c3c(C(N)=O)cc(-c4cccc(CNCc5ccc(O)c(O)c5)c4)cc23)CC1` [Example 16, 5-[3-({[(3,4-dihydroxyphenyl)methyl]amino}methyl)phenyl]-3-[1-(ethylsulfonyl)-4-piperidinyl]-1H-indole-7-carboxamide] was tested, and the IC50 [1] was no more than 10 µM and the IC50 [2] was no more than 1.5 µM.
In the case of `CCS(=O)(=O)N1CCC(c2c[nH]c3c(C(N)=O)cc(-c4cncc(CNCCCOC)c4)cc23)CC1` [Example 175, 3-[1-(ethylsulfonyl)-4-piperidinyl]-5-[5-({[3-(methyloxy)propyl]amino}methyl)-3-pyridinyl]-1H-indole-7-carboxamide], the IC50 [1] is reported as no more than 10 µM and the inhibition at 0.3 µM [2] is reported as 0 to 60%.
`CCS(=O)(=O)N1CCC(c2c[nH]c3c(C(N)=O)cc(-c4cncc(CNCCC#N)c4)cc23)CC1` [Example 62, 5-(5-{[(2-cyanoethyl)amino]methyl}-3-pyridinyl)-3-[1-(ethylsulfonyl)-4-piperidinyl]-1H-indole-7-carboxamide] was tested, and the IC50 [1] was no more than 10 µM and the IC50 [2] was no more than 1.5 µM.
`CCS(=O)(=O)N1CCC(c2c[nH]c3c(C(N)=O)cc(-c4cccc(CN(C)CC(O)c5ccccc5)c4)cc23)CC1` (stereo not shown) [Example 12, 3-[1-(ethylsulfonyl)-4-piperidinyl]-5-(3-{[(2-hydroxy-2-phenylethyl)-(methyl)amino]methyl}phenyl)-1H-indole-7-carboxamide] was tested, and the IC50 [1] was no more than 10 µM and the IC50 [2] was no more than 1.5 µM.
`CCS(=O)(=O)N1CCC(c2c[nH]c3c(C(N)=O)cc(-c4ccc(CNC)cc4)cc23)CC1` [Example 139, 3-[1-(ethylsulfonyl)-4-piperidinyl]-5-{4-[(methylamino)methyl]phenyl}-1H-indole-7-carboxamide trifluoroacetate] showed an IC50 [1] of no more than 10 µM and an IC50 [2] of no more than 1.5 µM.
Molecule `CCS(=O)(=O)N1CCC(c2c[nH]c3c(C(N)=O)cc(-c4ccc(CNC(=O)c5ccncc5)cc4)cc23)CC1` [Example 129, 3-[1-(ethylsulfonyl)-4-piperidinyl]-5-(4-{[(4-pyridinylcarbonyl)amino]methyl}phenyl)-1H-indole-7-carboxamide] has an IC50 [1] of no more than 10 µM and an IC50 [2] of no more than 1.5 µM.
For `CCS(=O)(=O)N1CCC(c2c[nH]c3c(C(N)=O)cc(-c4cccc(CNS(=O)(=O)c5cc(F)ccc5C)c4)cc23)CC1` [Example 377, 3-[1-(ethylsulfonyl)-4-piperidinyl]-5-[3-({[(5-fluoro-2-methylphenyl)sulfonyl]amino}methyl)phenyl]-1H-indole-7-carboxamide], the IC50 [1] was no more than 10 µM and the IC50 [2] was greater than 1 µM.
Work on `CCS(=O)(=O)N1CCC(c2c[nH]c3c(C(N)=O)cc(-c4csc(CN(C)CC5CCOCC5)c4)cc23)CC1` [Example 83, 3-[1-(ethylsulfonyl)-4-piperidinyl]-5-(5-{[methyl(tetrahydro-2H-pyran-4-ylmethyl)amino]methyl}-3-thienyl)-1H-indole-7-carboxamide trifluoroacetate] yielded an IC50 [1] of no more than 10 µM and an IC50 [2] of no more than 1.5 µM.
